Key:
SH-SY5Y [1] = assay: Cytotoxicity against human SH-SY5Y cells assessed as reduction in cell viability at 10 to 50 uM measured after 24 hrs by MTT assay; format: cell-based; conditions: dose 10-50 µM
SH-SY5Y [2] = assay: Neuroprotective activity against […]-induced cell death in human SH-SY5Y cells at 10 to 50 uM preincubated for 1 hr followed by […] stimulation and measured after 24 hrs by MTT assay relative to control; format: functional; conditions: dose 10-50 µM, time 25 hrs
SH-SY5Y [3] = assay: Neuroprotective activity against […]-induced cell death in human SH-SY5Y cells assessed as increase in cell viability preincubated for 1 hr followed by […] stimulation and measured after 24 hrs by MTT assay; format: functional, cell-based; conditions: dose 10-50 µM, time 25.0 hrs
[4] = Cytotoxicity against human SH-SY5Y cells assessed as cell viability at 50 uM measured after 24 hrs by MTT assay relative to control; format: cell-based; conditions: read-out: Activity
SH-SY5Y [5] = assay: Neuroprotective activity against […]-induced cell death in human SH-SY5Y cells assessed as cell viability at 1 uM preincubated for 1 hr followed by […] stimulation and measured after 24 hrs by MTT assay relative to control; format: functional; conditions: time 25 hrs, read-out: Activity

Q: What does the source list for `NC1=NN(c2ccccc2)C(=O)C12[C@@H](c1ccc(Cl)cc1)c1c([nH]n(-c3ccccc3)c1=O)N[C@H]2c1ccc(Cl)cc1` (stereo partly drawn)?
A: Activity (SH-SY5Y [1]): Non-Toxic; Activity (SH-SY5Y [2]): 20.05%; Activity (SH-SY5Y [3]): Dose-dependent effect; viability at 24 h, 50 µM [4]: 84.9%

Q: For `NC1=NN(c2ccccc2)C(=O)C12[C@@H](c1cccc(Br)c1)c1c([nH]n(-c3ccccc3)c1=O)N[C@H]2c1cccc(Br)c1` (stereo in doubt; 3c-1) [listing 1 of 2 here], which Activity (SH-SY5Y [3]) is on record?
A: Its Activity is “Dose-dependent effect”.

Q: Which Activity (SH-SY5Y [1]) does the source give for `NC1=NN(c2ccccc2)C(=O)C12[C@@H](c1ccccc1[N+](=O)[O-])c1c([nH]n(-c3ccccc3)c1=O)N[C@H]2c1ccccc1[N+](=O)[O-]` (stereo partly drawn) here?
A: Its Activity is “Non-Toxic”.

Q: What about the Activity (SH-SY5Y [2]) of the same molecule?
A: The Activity was 20.21%.

Q: And the Activity (SH-SY5Y [3])?
A: Its Activity is “Dose-dependent effect”.

Q: With `COc1cc(/C=C/C(=O)CC(=O)/C=C/c2ccc(O)c(OC)c2)ccc1O` [CURCUMIN] as the molecule, how does the viability at 1 µM (SH-SY5Y [5]) read?
A: Its viability at 1 µM is 80.7%.

Q: With `COc1ccc([C@H]2c3c([nH]n(-c4ccccc4)c3=O)N[C@@H](c3ccc(OC)cc3)C23C(=O)N(c2ccccc2)N=C3N)cc1` (stereo partly drawn) as the molecule, how does the Activity (SH-SY5Y [1]) read?
A: Its Activity is “Non-Toxic”.

Q: And the Activity (SH-SY5Y [2])?
A: The Activity was 26.54%.

Q: And the Activity (SH-SY5Y [3])?
A: The Activity was “Dose-dependent effect”.

Q: With `NC1=NN(c2ccccc2)C(=O)C12[C@@H](c1cccc(Br)c1)c1c([nH]n(-c3ccccc3)c1=O)N[C@H]2c1cccc(Br)c1` (stereo in doubt; 3c-2) [listing 1 of 2 here] as the molecule, how does the Activity (SH-SY5Y [3]) read?
A: The Activity was “Dose-dependent effect”.

Q: For `NC1=NN(c2ccccc2)C(=O)C12[C@@H](c1cccc([N+](=O)[O-])c1)c1c([nH]n(-c3ccccc3)c1=O)N[C@H]2c1cccc([N+](=O)[O-])c1` (stereo partly drawn), which Activity (SH-SY5Y [1]) is on record?
A: The Activity was “Non-Toxic”.

Q: And the Activity (SH-SY5Y [2])?
A: Its Activity is 22.81%.

Q: What about the Activity (SH-SY5Y [3]) of the same molecule?
A: Its Activity is “Dose-dependent effect”.

Q: For `NC1=NN(c2ccccc2)C(=O)C12[C@@H](c1cccs1)c1c([nH]n(-c3ccccc3)c1=O)N[C@H]2c1cccs1` (stereo partly drawn), which Activity (SH-SY5Y [1]) is on record?
A: The Activity was “Non-Toxic”.

Q: What about the Activity (SH-SY5Y [2]) of the same molecule?
A: Its Activity is 18.43%.

Q: And the Activity (SH-SY5Y [3])?
A: The Activity was “Dose-dependent effect”.

Q: Which Activity (SH-SY5Y [2]) does the source give for `NC1=NN(c2ccccc2)C(=O)C12[C@@H](c1cccc(Br)c1)c1c([nH]n(-c3ccccc3)c1=O)N[C@H]2c1cccc(Br)c1` (stereo in doubt; 3c-2) [listing 2 of 2 here] here?
A: Its Activity is 33.52%.

Q: With `NC1=NN(c2ccccc2)C(=O)C12[C@@H](c1ccccc1)c1c([nH]n(-c3ccccc3)c1=O)N[C@H]2c1ccccc1` (stereo partly drawn) as the molecule, how does the Activity (SH-SY5Y [1]) read?
A: Its Activity is “Non-Toxic”.

Q: What about the Activity (SH-SY5Y [2]) of the same molecule?
A: The Activity was 27.03%.

Q: And the Activity (SH-SY5Y [3])?
A: Its Activity is “Dose-dependent effect”.

Q: For `Cc1ccc([C@H]2c3c([nH]n(-c4ccccc4)c3=O)N[C@@H](c3ccc(C)cc3)C23C(=O)N(c2ccccc2)N=C3N)cc1` (stereo partly drawn), which Activity (SH-SY5Y [1]) is on record?
A: The Activity was “Non-Toxic”.

Q: And the Activity (SH-SY5Y [2])?
A: The Activity was 28.66%.

Q: And the Activity (SH-SY5Y [3])?
A: Its Activity is “Dose-dependent effect”.

Q: For `NC1=NN(c2ccccc2)C(=O)C12[C@@H](c1cccc(Br)c1)c1c([nH]n(-c3ccccc3)c1=O)N[C@H]2c1cccc(Br)c1` (stereo in doubt; 3c-1) [listing 2 of 2 here], which Activity (SH-SY5Y [1]) is on record?
A: The Activity was “Non-Toxic”.

Q: What about the Activity (SH-SY5Y [2]) of the same molecule?
A: The Activity was 30.11%.
